How the values were obtained:
Corynebacterium Ax 7 [1] = assay: Bactericidal activity (MBC), 60 min contact; format: cell-based, Corynebacterium group G; conditions: complete kill of inoculum after 60 min incubation; regrowth read after 24 h at 36° C.
From the text: (§1) The different axilla bacteria are isolated from the human axilla according to techniques known in the art, in particular according to standard microbiological practice. They are taxonomically identified by cell morphology, gram-reaction and biochemical tests included in the Api coryne test kit (BioMerieux, France). Strain Staphylococcus epidermidis Ax25 is identified by fatty acid methyl ester analysis (FAME; German type strain collection DSMZ, Germany). Escherichia coli DSM 682, Staphylococcus aureus DSM 799, and Corynebacterium xerosis DSM 20170 are obtained from the German-type strain collection.
(§2) The strains are maintained on Tryptic soy broth plates, this standard medium being supplemented with 5 g per litre of Polyoxyethylene Sorbitan Monooleate (Tween™ 80). Plates are incubated at 36° C. for a period 48 hours. The bacteria are then swabbed from the plates and suspended in 4 ml of Müller-Hinton broth supplemented with 100 mg of Tween™ 80 per litre (MH-Tween™) and incubated again at 36° C. for 16 hours. Following incubation, the bacterial suspensions are diluted in MH-Tween™ to obtain a final cell density of 10^7 colony forming units per ml. These diluted suspensions of the different test organisms are distributed to different columns of a microtiter plate, 100 μl per well. The test compounds are dissolved in dimethylsulfoxide (DMSO) at various test concentrations and 2.5 μl of these different DMSO solutions are added to the different wells of the test plates. The plates are covered with plastic films and incubated for 24 h at 36° C. with shaking at 250 rpm. The turbidity developing in the microtiter plates is then examined after 24 h to determine microbial growth. The minimal concentration of test compounds inhibiting the growth of an organism by at least 80% is determined as the minimal inhibitory concentration (MIC).
(§3) The bactericidal effects of the compounds of the present invention are further tested. The bacteria are grown, harvested and diluted under the same conditions as described in example 10 above and added to microtiter plates (100 μl per well), each well containing 2.5 μl of the different DMSO solutions as described above. After 60 min incubation, 0.5 μl of the bacterial culture from each well (corresponding to 5×10^3 cfu in the control treatment) is transferred to a fresh microtiter plate which contained 100 μl per well of fresh medium. The plates are covered with plastic films and incubated for 24 h at 36° C. with shaking at 250 rpm. The turbidity developing in the microtiter plates is then examined after 24 h to determine microbial growth. The minimal concentration of test compounds which completely killed the bacterial inoculum is determined as the minimal bactericidal concentration (MBC).

Escherichia coli DSM 682 [2] = assay: Bactericidal activity (MBC), 60 min contact; format: cell-based; conditions: complete kill of inoculum after 60 min incubation; regrowth read after 24 h at 36° C.
From the text: as §1, §2, §3

[3] = system: Staphylococcus aureus DSM 799; assay: Bactericidal activity (MBC), 60 min contact; format: cell-based; conditions: complete kill of inoculum after 60 min incubation; regrowth read after 24 h at 36° C.
From the text: as §1, §2, §3

C. xerosis DSM 20170 [4] = assay: Bactericidal activity (MBC), 60 min contact; format: cell-based, Corynebacterium xerosis; conditions: complete kill of inoculum after 60 min incubation; regrowth read after 24 h at 36° C.
From the text: as §1, §2, §3

Corynebacterium Ax 15 [5] = assay: Bacteriostatic activity (MIC), microtiter turbidity; format: cell-based, Corynebacterium jeikeium; conditions: AX15, 24 h, read-out: MIC Corynebacterium Ax 15
From the text: (§4) The different axilla bacteria are isolated from the human axilla according to techniques known in the art, in particular according to standard microbiological practice. They are taxonomically identified by cell morphology, gram-reaction and biochemical tests included in the Api coryne test kit (BioMerieux, France). Strain Staphylococcus epidermidis Ax25 is identified by fatty acid methyl ester analysis (FAME; German type strain collection DSMZ, Germany).
as §2, with “growth.” for “growth. The minimal concentration of test compounds inhibiting the growth of an organism by at least 80% is determined as the minimal inhibitory concentration (MIC).”

Corynebacterium Ax 7 [6] = assay: as above; format: cell-based, Corynebacterium group G; conditions: AX7, 24 h, read-out: MIC Corynebacterium Ax 7
From the text: as §4
as §2, with “growth.” for “growth. The minimal concentration of test compounds inhibiting the growth of an organism by at least 80% is determined as the minimal inhibitory concentration (MIC).”

S. epidermidis Ax 25 [7] = assay: Bactericidal activity (MBC), 60 min contact; format: cell-based, Staphylococcus epidermidis; conditions: complete kill of inoculum after 60 min incubation; regrowth read after 24 h at 36° C.
From the text: as §1, §2, §3

Aspergillus niger = assay: Antifungal (fungistatic) activity, MIC; format: cell-based; conditions: growth inhibition by at least 80%, 48 h, Saboureaud liquid medium, 10^5 cfu per ml
Protocol: as §2
(§5) The fungistatic effects of the compounds of the present invention are tested against the standard strains Candida albicans and Aspergillus niger. The strains are maintained on Potato dextrose agar plates. Plates are incubated at 30° C. for a period of 72 hours. The fungal inoculum is then swabbed from the plates and suspended in Saboureaud liquid medium and incubated again at 30° C. for 24 hours in the case of C. albicans. For A. niger the inoculum containing the fungal spores is directly harvested from the agar plates and suspended in distilled water. The inoculum is then diluted in Saboureaud liquid medium to obtain a final cell density of 10^5 colony forming units per ml. The test for fungistatic activity using differently concentrated DMSO stock solutions in microtiter plates is then conducted as described in example 10 for the bacteriostatic activity. The turbidity developing in the microtiter plates is then examined after 48 h to determine fungal growth. The minimal concentration of test compounds inhibiting the growth of an organism by at least 80% is determined as the minimal inhibitory concentration (MIC).

Candida albicans = assay: Antifungal (fungistatic) activity, MIC; format: cell-based; conditions: growth inhibition by at least 80%, 48 h, Saboureaud liquid medium, 10^5 cfu per ml
Protocol: as §2, §5

Escherichia coli DSM 682 [8] = assay: Bacteriostatic activity (MIC), microtiter turbidity; format: cell-based; conditions: DSM682, 24 h, read-out: MIC Escherichia coli DSM 682
From the text: as §4
as §2, with “growth.” for “growth. The minimal concentration of test compounds inhibiting the growth of an organism by at least 80% is determined as the minimal inhibitory concentration (MIC).”

[9] = system: Staphylococcus aureus DSM 799; assay: as above; format: cell-based; conditions: DSM799, 24 h, read-out: MIC Staphylococcus aureus DSM 799
From the text: as §4
as §2, with “growth.” for “growth. The minimal concentration of test compounds inhibiting the growth of an organism by at least 80% is determined as the minimal inhibitory concentration (MIC).”

C. xerosis DSM 20170 [10] = assay: as above; format: cell-based; conditions: Corynebacterium xerosis, DSM20170, 24 h, read-out: MIC C. xerosis DSM 20170
From the text: as §4
as §2, with “growth.” for “growth. The minimal concentration of test compounds inhibiting the growth of an organism by at least 80% is determined as the minimal inhibitory concentration (MIC).”

S. epidermidis Ax 25 [11] = assay: as above; format: cell-based; conditions: Staphylococcus epidermidis, AX25, 24 h, read-out: MIC S. epidermidis Ax 25
From the text: as §4
as §2, with “growth.” for “growth. The minimal concentration of test compounds inhibiting the growth of an organism by at least 80% is determined as the minimal inhibitory concentration (MIC).”

Corynebacterium Ax 15 [12] = assay: Bactericidal activity (MBC), 60 min contact; format: cell-based, Corynebacterium jeikeium; conditions: complete kill of inoculum after 60 min incubation; regrowth read after 24 h at 36° C.
From the text: as §1, §2, §3

Structure (SMILES): CCCCCCC(CCCC)COC(=O)CN (centres unmarked) [Compound 5., 2-Butyl-octyloxycarbonylmethyl-ammonium chloride]
- MBC Corynebacterium Ax 7 (Corynebacterium Ax 7 [1]): 0.002 % (weight/volume)
- MBC Escherichia coli DSM 682 (Escherichia coli DSM 682 [2]): 0.004 % (weight/volume)
- MBC Staphylococcus aureus DSM 799 [3]: 0.004 % (weight/volume)
- MBC C. xerosis DSM 20170 (C. xerosis DSM 20170 [4]): 0.004 % (weight/volume)
- MIC (Corynebacterium Ax 15 [5]): 10 µg/mL
- MIC (Corynebacterium Ax 7 [6]): 10 µg/mL
- MBC S. epidermidis Ax 25 (S. epidermidis Ax 25 [7]): 0.004 % (weight/volume)
- MIC A. niger (Aspergillus niger): 0.0039 % (weight/volume)
- MIC C. albicans (Candida albicans): 0.0078 % (weight/volume)
- MIC (Escherichia coli DSM 682 [8]): 20 µg/mL
- MIC [9]: 80 µg/mL
- MIC (C. xerosis DSM 20170 [10]): 20 µg/mL
- MIC (S. epidermidis Ax 25 [11]): 20 µg/mL
- MBC Corynebacterium Ax 15 (Corynebacterium Ax 15 [12]): 0.002 % (weight/volume)

Reference: patent publication US7459581B2, “Anti-bacterial compounds” (Givaudan S.A., priority 2004, dated 2008)
